The source of these data is patent US20240018135A1, “COMPOUND HAVING INHIBITORY ACTIVITY AGAINST O-GLUSACASE AND USE THEREOF” (MEDIFRON DBT INC., priority 2020, published 2024).

SMILES strings stand for the structures.

Series [1] deals with Human OGA (recombinant hOGA protein) (Homo sapiens (Human), UniProt O60502). Kind of series: Human OGA enzyme activity assay (fluorescence, 4-Methylumbelliferyl N-acetyl-β-D-glucosaminide substrate). Type of series: biochemical. The conditions noted are these: for IC50: Table 1; for % of inhibition: Table 1, test concentration not given.
Human OGA (recombinant hOGA protein), sequence (O60502 whole entry): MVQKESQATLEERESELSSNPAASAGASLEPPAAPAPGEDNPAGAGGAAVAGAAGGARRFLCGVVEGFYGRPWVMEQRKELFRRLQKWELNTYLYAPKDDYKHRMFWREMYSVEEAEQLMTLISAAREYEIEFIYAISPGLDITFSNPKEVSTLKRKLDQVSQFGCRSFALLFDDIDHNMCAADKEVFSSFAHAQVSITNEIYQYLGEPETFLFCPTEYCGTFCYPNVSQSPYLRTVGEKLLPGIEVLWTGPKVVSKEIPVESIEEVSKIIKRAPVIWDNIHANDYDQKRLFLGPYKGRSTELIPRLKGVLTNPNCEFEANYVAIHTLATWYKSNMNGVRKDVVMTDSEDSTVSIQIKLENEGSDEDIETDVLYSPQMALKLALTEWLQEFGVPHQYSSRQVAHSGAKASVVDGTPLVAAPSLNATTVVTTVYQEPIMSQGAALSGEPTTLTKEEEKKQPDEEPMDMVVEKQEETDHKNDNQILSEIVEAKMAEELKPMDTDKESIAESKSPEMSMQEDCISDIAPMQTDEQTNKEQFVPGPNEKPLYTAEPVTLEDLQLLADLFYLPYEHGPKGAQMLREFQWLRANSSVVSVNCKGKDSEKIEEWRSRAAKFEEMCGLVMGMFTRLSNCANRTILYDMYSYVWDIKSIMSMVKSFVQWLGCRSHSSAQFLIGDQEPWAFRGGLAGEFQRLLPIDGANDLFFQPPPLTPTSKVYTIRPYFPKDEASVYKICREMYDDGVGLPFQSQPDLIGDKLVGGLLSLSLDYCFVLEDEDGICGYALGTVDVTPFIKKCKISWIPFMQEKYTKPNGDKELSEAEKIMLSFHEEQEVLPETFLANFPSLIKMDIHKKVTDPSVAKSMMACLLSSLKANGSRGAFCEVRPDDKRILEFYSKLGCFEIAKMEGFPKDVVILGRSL
Series [2] deals with bacterial homolog of O-GlcNAcase from Clostridium perfringens (Clostridium perfringens (strain 13 / Type A), UniProt Q8XL08). The following applies: cited from earlier work.
bacterial homolog of O-GlcNAcase from Clostridium perfringens, sequence (Q8XL08 31-1001 limits assumed): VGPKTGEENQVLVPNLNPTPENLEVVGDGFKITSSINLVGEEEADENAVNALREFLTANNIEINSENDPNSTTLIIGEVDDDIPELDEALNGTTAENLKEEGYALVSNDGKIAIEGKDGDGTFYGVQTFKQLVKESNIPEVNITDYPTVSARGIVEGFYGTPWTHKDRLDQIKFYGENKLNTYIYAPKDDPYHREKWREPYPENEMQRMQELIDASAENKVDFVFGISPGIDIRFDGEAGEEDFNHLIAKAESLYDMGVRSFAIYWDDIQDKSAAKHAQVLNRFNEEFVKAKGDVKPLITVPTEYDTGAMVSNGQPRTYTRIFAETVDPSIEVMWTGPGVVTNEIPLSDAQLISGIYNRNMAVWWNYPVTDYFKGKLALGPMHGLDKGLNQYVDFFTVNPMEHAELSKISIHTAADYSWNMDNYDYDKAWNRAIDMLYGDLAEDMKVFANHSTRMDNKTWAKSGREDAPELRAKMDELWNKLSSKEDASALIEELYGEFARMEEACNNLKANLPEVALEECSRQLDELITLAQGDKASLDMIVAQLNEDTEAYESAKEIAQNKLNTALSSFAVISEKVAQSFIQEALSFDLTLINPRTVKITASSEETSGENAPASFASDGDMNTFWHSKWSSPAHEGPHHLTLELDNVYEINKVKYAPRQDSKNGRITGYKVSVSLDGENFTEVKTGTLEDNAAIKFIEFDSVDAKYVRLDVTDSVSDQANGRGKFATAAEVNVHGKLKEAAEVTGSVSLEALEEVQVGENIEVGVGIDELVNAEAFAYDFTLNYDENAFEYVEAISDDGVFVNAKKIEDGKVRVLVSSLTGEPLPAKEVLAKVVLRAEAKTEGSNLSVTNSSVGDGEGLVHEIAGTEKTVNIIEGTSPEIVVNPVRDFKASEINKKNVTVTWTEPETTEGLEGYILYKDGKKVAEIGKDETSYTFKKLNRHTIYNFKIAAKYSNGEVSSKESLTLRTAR
Another series deals with human O-GlcNAcase (Homo sapiens (Human), UniProt O60502). The following applies: cited from earlier work.
human O-GlcNAcase, sequence (O60502 whole entry): as the sequence (O60502 whole entry) above

As to `COc1ccc(NC(=O)C=C2CCN(Cc3cnc(NC(C)=O)s3)CC2)cc1` [Compound C-5, 2-(1-((2-acetamidothiazol-5-yl)methyl)piperidin-4 ylidene)-N-(4-methoxyphenyl)acetamide], the melting point (usually the temperature of the solid-liquid transition) lay in the range of 212 to 214 °C. Further, in series [1], the IC50 (as a rule, the concentration that inhibits the measured activity by half) was found to be 450 nM and the “% of inhibition” value is 94.8%.

For `COc1ccc(NC(=O)C=C2CCN(Cc3cnc(NC(C)=O)s3)CC2)cc1OC` [Compound C-6, 2-(1-((2-acetamidothiazol-5-yl)methyl)piperidin-4-ylidene)-N-(3,4-dimethoxyphenyl)acetamide], the melting point was 214 to 219 °C. Also, in series [1], the concentration for half-maximal inhibition (IC50) stood at 350 nM and the “% of inhibition” value amounted to 95.8%.

`COc1ccc(CNC(=O)C=C2CCN(Cc3cnc(NC(C)=O)s3)CC2)cc1` [Compound C-7, 2-(1-((2-acetamidothiazol-5-yl)methyl)piperidin-4-ylidene)-N-(4-methoxybenzyl)acetamide] registered a melting point of 222 to 224 °C. Moreover, in series [1], the IC50 was 80 nM and the “% of inhibition” value was 98.2%.

Regarding `CC(=O)Nc1ncc(CN2CCC(=CC(=O)NC3CCCCC3)CC2)s1` [Compound C-8, 2-(1-((2-acetamidothiazol-5-yl)methyl)piperidin-4-ylidene)-N-cyclohexylacetamide], the melting point lay within 222 to 224 °C. Also, the “% of inhibition” value in series [1] amounted to 97.7%.

For the molecule `CC(C)C(=O)N[C@H]1c2nc(CCc3ccccc3)cn2[C@H](CO)[C@@H](O)[C@@H]1O` [GlcNAcstatin], in series [2], the efficacy entry is given as “picomolar”.

`CC(=O)N[C@H]1c2nc(CC(=O)O)cn2[C@H](CO)[C@@H](O)[C@@H]1O` [gluco-nagstatin]: the Ki – broadly, the equilibrium dissociation constant of an inhibitor or competing ligand from its target – at human O-GlcNAcase is 420 nM.
